{
  "source": "patent US11214803B2",
  "about": "“Modulators of YAP1 expression” (Ionis Pharmaceuticals, Inc., priority 2019, dated 2022)",
  "test_system": "Yap1 mRNA",
  "experiment": "Dose-dependent inhibition of human Yap1 in A-431 cells (Example 7, 10,000 cells per well, RTS36584)",
  "assay_type": "cell-based",
  "conditions": "free uptake",
  "in_short": "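Yap1 mRNA was expressed as percent of untreated control after normalization to total RNA (RIBOGREEN), and IC50 was derived by log/linear linear regression. The read-out used primer-probe set RTS36584 roughly 48 hours after free-uptake dosing of oligonucleotides into A-431 cells (10,000 cells/well).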",
  "key": {"[1]": {"conditions": "Table 61, 15.6 nM, A-431 cells 10,000 cells per well, 48 hours"}, "[2]": {"conditions": "Table 61, 62.5 nM, A-431 cells 10,000 cells per well, 48 hours"}, "[3]": {"conditions": "Table 61, 4000.00 nM, A-431 cells 10,000 cells per well, 48 hours"}, "[4]": {"conditions": "Table 61, A-431 cells 10,000 cells per well"}, "[5]": {"conditions": "Table 58, 15.6 nM, A-431 cells 10,000 cells per well, 48 hours"}, "[6]": {"conditions": "Table 58, 62.5 nM, A-431 cells 10,000 cells per well, 48 hours"}, "[7]": {"conditions": "Table 58, 4000.00 nM, A-431 cells 10,000 cells per well, 48 hours"}, "[8]": {"conditions": "Table 58, A-431 cells 10,000 cells per well"}, "[9]": {"conditions": "Table 56, 15.6 nM, A-431 cells 10,000 cells per well, 48 hours"}, "[10]": {"conditions": "Table 56, 62.5 nM, A-431 cells 10,000 cells per well, 48 hours"}, "[11]": {"conditions": "Table 56, 4000.00 nM, A-431 cells 10,000 cells per well, 48 hours"}, "[12]": {"conditions": "Table 56, A-431 cells 10,000 cells per well"}, "[13]": {"conditions": "15.6 nM, A-431 cells, 10,000 cells per well, approximately 48 hours"}, "[14]": {"conditions": "62.5 nM, A-431 cells, 10,000 cells per well, approximately 48 hours"}, "[15]": {"conditions": "4000.00 nM, A-431 cells, 10,000 cells per well, approximately 48 hours"}, "[16]": {"conditions": "A-431 cells, approximately 48 hours, linear regression on log/linear plot"}, "[17]": {"conditions": "Table 60, 15.6 nM, A-431 cells 10,000 cells per well, 48 hours"}, "[18]": {"conditions": "Table 60, 62.5 nM, A-431 cells 10,000 cells per well, 48 hours"}, "[19]": {"conditions": "Table 60, 4000.00 nM, A-431 cells 10,000 cells per well, 48 hours"}, "[20]": {"conditions": "Table 60, A-431 cells 10,000 cells per well"}},
  "note": "pIC50: −log10 of the molar value. Strand notation (5' to 3'): a small letter for the sugar, then the base; units joined by * are phosphorothioate-linked, units joined directly phosphodiester-linked; [ ] holds rarer units or linkages, { } end groups; capitals alone tell only the bases. k = constrained ethyl (cEt); [5mC] = 5-methylcytosine; d = 2'-deoxy (DNA)",
  "data": [
    {"substance": "958659 (kG*kT*kT*dG*dT*dA*dT*dT*dA*d[5mC]*dT*d[5mC]*dT*k[5mC]*k[5mC]*kA; antisense) [compound 958659]", "values": [
      {"measurement": "Yap1 mRNA, % UTC", "setting": "[1]", "result": 91, "unit": "% UTC"},
      {"measurement": "Yap1 mRNA, % UTC", "setting": "[2]", "result": 68, "unit": "% UTC"},
      {"measurement": "Yap1 mRNA, % UTC", "setting": "[3]", "result": 9, "unit": "% UTC"},
      {"measurement": "pIC50", "setting": "[4]", "result": 7.00}
    ]},
    {"substance": "958537 (k[5mC]*kA*kG*dG*dG*dT*d[5mC]*dA*dA*dT*dT*dT*dT*k[5mC]*kA*kG; antisense) [compound 958537]", "values": [
      {"measurement": "Yap1 mRNA, % UTC", "setting": "[5]", "result": 100, "unit": "% UTC"},
      {"measurement": "Yap1 mRNA, % UTC", "setting": "[6]", "result": 56, "unit": "% UTC"},
      {"measurement": "Yap1 mRNA, % UTC", "setting": "[7]", "result": 11, "unit": "% UTC"},
      {"measurement": "pIC50", "setting": "[8]", "result": 7.00}
    ]},
    {"substance": "958796 (kA*kT*kT*dA*dT*dA*dT*dG*dG*dT*dT*dG*d[5mC]*kT*kT*k[5mC]; antisense) [compound 958796]", "values": [
      {"measurement": "Yap1 mRNA, % UTC", "setting": "[9]", "result": 91, "unit": "% UTC"},
      {"measurement": "Yap1 mRNA, % UTC", "setting": "[10]", "result": 62, "unit": "% UTC"},
      {"measurement": "Yap1 mRNA, % UTC", "setting": "[11]", "result": 15, "unit": "% UTC"},
      {"measurement": "pIC50", "setting": "[12]", "result": 6.89}
    ]},
    {"substance": "958532 (kG*kA*kA*dG*dT*dA*dG*dG*dA*dG*d[5mC]*dA*dA*kG*kT*k[5mC]; antisense) [compound 958532]", "values": [
      {"measurement": "Yap1 mRNA, % UTC", "setting": "[5]", "result": 88, "unit": "% UTC"},
      {"measurement": "Yap1 mRNA, % UTC", "setting": "[6]", "result": 44, "unit": "% UTC"},
      {"measurement": "Yap1 mRNA, % UTC", "setting": "[7]", "result": 7, "unit": "% UTC"},
      {"measurement": "pIC50", "setting": "[8]", "result": 7.00}
    ]},
    {"substance": "958587 (kG*kG*kT*dG*dA*d[5mC]*dT*dG*dA*dA*dA*d[5mC]*dT*k[5mC]*kT*kA; antisense) [compound 958587]", "values": [
      {"measurement": "Yap1 mRNA, % UTC", "setting": "[5]", "result": 94, "unit": "% UTC"},
      {"measurement": "Yap1 mRNA, % UTC", "setting": "[6]", "result": 49, "unit": "% UTC"},
      {"measurement": "Yap1 mRNA, % UTC", "setting": "[7]", "result": 7, "unit": "% UTC"},
      {"measurement": "pIC50", "setting": "[8]", "result": 7.00}
    ]},
    {"substance": "958615 (kT*kG*kG*dT*d[5mC]*dT*dT*dG*dT*dT*d[5mC]*dT*dT*kA*kT*kG; antisense) [compound 958615]", "values": [
      {"measurement": "Yap1 mRNA, % UTC", "setting": "[13]", "result": 91, "unit": "% UTC"},
      {"measurement": "Yap1 mRNA, % UTC", "setting": "[14]", "result": 60, "unit": "% UTC"},
      {"measurement": "Yap1 mRNA, % UTC", "setting": "[15]", "result": 18, "unit": "% UTC"},
      {"measurement": "pIC50", "setting": "[16]", "result": 7.00}
    ]},
    {"substance": "958580 (kA*kT*kA*dA*dT*d[5mC]*dT*dT*dA*dA*dT*d[5mC]*dT*kG*kT*kG; antisense) [compound 958580]", "values": [
      {"measurement": "Yap1 mRNA, % UTC", "setting": "[13]", "result": 95, "unit": "% UTC"},
      {"measurement": "Yap1 mRNA, % UTC", "setting": "[14]", "result": 59, "unit": "% UTC"},
      {"measurement": "Yap1 mRNA, % UTC", "setting": "[15]", "result": 9, "unit": "% UTC"},
      {"measurement": "pIC50", "setting": "[16]", "result": 7.00}
    ]},
    {"substance": "958605 (k[5mC]*kT*k[5mC]*dA*dG*dA*dT*dG*dT*dA*d[5mC]*d[5mC]*dA*kA*k[5mC]*kG; antisense) [compound 958605]", "values": [
      {"measurement": "Yap1 mRNA, % UTC", "setting": "[13]", "result": 76, "unit": "% UTC"},
      {"measurement": "Yap1 mRNA, % UTC", "setting": "[14]", "result": 63, "unit": "% UTC"},
      {"measurement": "Yap1 mRNA, % UTC", "setting": "[15]", "result": 9, "unit": "% UTC"},
      {"measurement": "pIC50", "setting": "[16]", "result": 7.00}
    ]},
    {"substance": "958593 (kG*kG*kT*d[5mC]*dA*dG*dT*dA*d[5mC]*dA*dG*dA*dG*kG*kG*k[5mC]; antisense) [compound 958593]", "values": [
      {"measurement": "Yap1 mRNA, % UTC", "setting": "[17]", "result": 99, "unit": "% UTC"},
      {"measurement": "Yap1 mRNA, % UTC", "setting": "[18]", "result": 60, "unit": "% UTC"},
      {"measurement": "Yap1 mRNA, % UTC", "setting": "[19]", "result": 15, "unit": "% UTC"},
      {"measurement": "pIC50", "setting": "[20]", "result": 7.00}
    ]},
    {"substance": "958496 (k[5mC]*k[5mC]*kT*dT*dA*dT*dA*dA*dG*d[5mC]*dT*d[5mC]*d[5mC]*kT*kA*kA; antisense) [compound 958496]", "values": [
      {"measurement": "Yap1 mRNA, % UTC", "setting": "[9]", "result": 86, "unit": "% UTC"},
      {"measurement": "Yap1 mRNA, % UTC", "setting": "[10]", "result": 53, "unit": "% UTC"},
      {"measurement": "Yap1 mRNA, % UTC", "setting": "[11]", "result": 9, "unit": "% UTC"},
      {"measurement": "pIC50", "setting": "[12]", "result": 7.05}
    ]},
    {"substance": "958614 (kG*kT*k[5mC]*dT*dT*dG*dT*dT*d[5mC]*dT*dT*dA*dT*kG*kG*kT; antisense) [compound 958614]", "values": [
      {"measurement": "Yap1 mRNA, % UTC", "setting": "[1]", "result": 84, "unit": "% UTC"},
      {"measurement": "Yap1 mRNA, % UTC", "setting": "[2]", "result": 49, "unit": "% UTC"},
      {"measurement": "Yap1 mRNA, % UTC", "setting": "[3]", "result": 13, "unit": "% UTC"},
      {"measurement": "pIC50", "setting": "[4]", "result": 7.00}
    ]},
    {"substance": "958753 (kT*kG*kT*dA*dT*dA*dT*dG*d[5mC]*d[5mC]*dG*dT*dT*k[5mC]*k[5mC]*k[5mC]; antisense) [compound 958753]", "values": [
      {"measurement": "Yap1 mRNA, % UTC", "setting": "[17]", "result": 72, "unit": "% UTC"},
      {"measurement": "Yap1 mRNA, % UTC", "setting": "[18]", "result": 48, "unit": "% UTC"},
      {"measurement": "Yap1 mRNA, % UTC", "setting": "[19]", "result": 11, "unit": "% UTC"},
      {"measurement": "pIC50", "setting": "[20]", "result": 7.00}
    ]},
    {"substance": "958644 (kA*kT*kG*dA*dT*d[5mC]*dA*dA*dA*d[5mC]*d[5mC]*dT*dT*kT*kT*k[5mC]; antisense) [compound 958644]", "values": [
      {"measurement": "Yap1 mRNA, % UTC", "setting": "[1]", "result": 97, "unit": "% UTC"},
      {"measurement": "Yap1 mRNA, % UTC", "setting": "[2]", "result": 85, "unit": "% UTC"},
      {"measurement": "Yap1 mRNA, % UTC", "setting": "[3]", "result": 24, "unit": "% UTC"},
      {"measurement": "pIC50", "setting": "[4]", "result": 6.52}
    ]},
    {"substance": "958650 (kT*k[5mC]*kA*dA*dT*dT*dG*dA*dG*dT*d[5mC]*dT*dG*k[5mC]*kT*kA; antisense) [compound 958650]", "values": [
      {"measurement": "Yap1 mRNA, % UTC", "setting": "[13]", "result": 82, "unit": "% UTC"},
      {"measurement": "Yap1 mRNA, % UTC", "setting": "[14]", "result": 51, "unit": "% UTC"},
      {"measurement": "Yap1 mRNA, % UTC", "setting": "[15]", "result": 7, "unit": "% UTC"},
      {"measurement": "pIC50", "setting": "[16]", "result": 7.00}
    ]}
  ]
}
